In patent publication US20130101996A1, “DETECTION METHOD AND APPARATUS OF ACTIVATED NEUTROPHILS” (SYSMEX CORPORATION, priority 2011, published 2013):

Legend:
Type in all cases: cell-based, human
neutrophils [1] = assay: Confocal laser microscope observation of APF fluorescence (ROS production) in stimulated neutrophils; conditions: PMA as stimulating substance, APF 10 μM; confocal laser microscopes
Protocol: A sample containing activated neutrophils is prepared from peripheral blood extracted from an able-bodied person in the same manner as in Example 1. However, only PMA is used as a stimulating substance of neutrophils. A sample (−APF) not treated by APF and a stimulating substance and a sample (+APF) not treated by a stimulating substance are prepared as control samples.
Each prepared sample is moved to a glass bottom dish coated with poly-L-lysine to observe neutrophils in the sample by confocal laser microscopes (IX81 (manufactured by Olympus Corporation), CSU-X1 (manufactured by Yokogawa Electric Corporation), and ImagEM (manufactured by Hamamatsu Photonics K. K.)).

[2] = tested on: neutrophils in whole blood; assay: Whole blood measured by automated blood cell counter XE-2100, DIFF scattergram of 4DS-SSC; conditions: PMA 0.32 nM, room temperature 10 min; whole blood (EDTA-2K)
Protocol: Peripheral blood is extracted from an able-bodied person by using a blood collection tube containing EDTA-2K for hematologic examination. PMA (manufactured by Sigma-Aldrich Co., LLC.) (final concentration: 0.32 nM) is added to the obtained blood, which is left still at room temperature for 10 min. Whole blood to which PMA is not added is used as a control sample.
The prepared sample is supplied to the automated blood cell counter XE-2100 (manufactured by Sysmex Corporation) for measurement to acquire a DIFF scattergram of 4DS-SSC. The automated blood cell counter XE-2100 automatically treats the sample prepared as described above by using Stromatolyser-4DL and Stromatolyser-4DS (manufactured by Sysmex Corporation) to prepare a measurement sample.

neutrophils [3] = assay: Flow cytometry (FACSCalibur) of stimulated polymorphonucleocytes, 4DS-SSC scattergram; conditions: PMA 0.32 nM or fMLP 50 nM, room temperature 10 min; versus non-stimulated control
Protocol: Peripheral blood is extracted from an able-bodied person by using a heparin blood collection tube for hematologic examination. A polynuclear sample of purity 90% or more is obtained by centrifugation of the obtained blood using a monopolymer separation solution (Dainippon Sumitomo Pharma Co., Ltd.) at room temperature. This operation is performed according to instructions of the manufacturer (Dainippon Sumitomo Pharma Co., Ltd.). Then, the obtained polymorphonucleocytes (2×10^5) are suspended in a 1 mL of 0.1% bovine serum albumin (phosphate buffered saline). To stain neutrophils of polymorphonucleocytes, CD16 (antihuman CD16 Fc gamma receptor III (clone: DJ130c).mouse monoclonal antibody/neutrophil specific antibody for RPE labeled flow cytometry; Dako) (final concentration: 750 μg/L) fluorescence-labeled by phycoerythrin (PE) is added to the obtained suspension for incubation at room temperature for 10 min. Next, APF (Aminophenyl Fluorescein, Sekisui Medical Co., Ltd.) (final concentration: 10 μM) as a reagent for ROS detection is added to the suspension, which is left still at room temperature for 30 min. […]

neutrophils [4] = assay: Transmission electron microscope observation of stimulated neutrophils; conditions: PMA or fMLP added, fixed by 2.5% glutaraldehyde
Protocol: A sample containing activated neutrophils is prepared from peripheral blood extracted from an able-bodied person in the same manner as in Example 1. Also, a sample not treated by a stimulating substance is prepared as a control sample.
The samples are fixed by 2.5% glutaraldehyde to prepare electron microscope samples according to the method described in the literature by the inventors (Mari Kono et al. (2009), ‘Morphological definition of CD71 positive reticulocytes by various staining techniques and electron microscopy compared to reticulocytes detected by an automated hematology analyzer’, Clinica Chimica Acta, Vol. 404, p105-110.). The obtained samples are analyzed by using a transmission electron microscope (Hitachi H-7500).

Compound	ROS production capability of neutrophils (APF derived fluorescence) (neutrophils [1])	appearance of activated neutrophils in 4DS-SSC scattergram, whole blood [2]	appearance region of neutrophils in 4DS-SSC scattergram (neutrophils [3])	changes of form of neutrophils (degranulation, vacuole in cytoplasm) (neutrophils [4])
CCCCCCCCCCCCCC(=O)O[C@@H]1[C@@H](C)[C@@]2(O)[C@@H](C=C(CO)C[C@]3(O)C(=O)C(C)=C[C@@H]23)[C@@H]2C(C)(C)[C@]12OC(C)=O [PMA, Phorbol 12-myristate 13-acetate]	enhanced	activated neutrophils appear between a cluster containing neutrophils and a cluster containing eosinophils	neutrophils appear on other regions	many neutrophils in which degranulation and vacuole are produced in cytoplasm are observed
N-Formyl-Met-Leu-Phe [fMLP]			neutrophils appear on other regions	many neutrophils in which degranulation and vacuole are produced in cytoplasm are observed
